Where two headings read alike, the source gives them in different places.
Key:
[1] = β-sheet content by ATR-FT-IR; format: physicochemical; settings: for b -sheet / %: Fig. S7 panel A, β-sheet content by ATR-FT-IR; for beta sheet: peptides with TEM 2cat 0
Procedure, shortened: (§1)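 Conversion rate: fluorescamine fluorescence (ex 365/em 470 nm, 20 min RT) of 3 kDa filtrate versus unfiltered PNF, CR = 100 − 100 × filtrate/original intensity, triplicates. β-sheet content came from ATR FT-IR of lyophilized 1 mg/mL PNF powder, 64 scans.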

[2] = Turbidity, derived count rate of scattered light; format: physicochemical; settings: for Count Rate / kcps: derived count rate of scattered light at 633 nm, 173°, from zeta-potential measurement, 0.1 mg/mL in 1 mM KCl after 1 d at 1 mg/mL in PBS, turbidity / microscopic aggregation, mean of triplicate
Procedure, shortened: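 Samples: 1 mg/mL in PBS pH 7.4 (from DMSO), 1 d at RT, then diluted in 1 mM KCl immediately before measurement. Triplicates, two independent runs averaged.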

[3] = Zeta-potential measurement; format: physicochemical
Procedure, shortened: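 Zeta potentials of aggregated peptides come from electrophoretic mobility (Smoluchowski model) in 1 mM KCl after a 1 d RT incubation at 1 mg/mL in PBS, pH 7.4.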

[4] = system: HIV-1 infection of TZM-bl cells; experiment: HIV-1 infectivity enhancement assay, β-galactosidase luminescence; format: cell-based; settings: for Rel-EFC / Log10 Infection Rel EFC: 1.3 µM peptide; for Rel-EFC: infection relative to EF-C (QCKIKQIINMWQ = 1); for Log10 Infection Rel EFC: log10 of infection relative to EF-C; for Log Infectivity: Log10 infection relative to EF-C, TZM-bl cells, asymmetric std dev errors; for Log10 Infection Rel EF-C: HIV-1 infection of TZM-bl cells; for Log10 of Rel to EFC (Feb2021): Log10 of infection relative to EF-C
[5] = Conversion rate (CR) assay with fluorescamine; format: physicochemical; parameters: key to CR: % = 100−100×filtrate/original fluorescence intensity; settings: conversion rate, fluorescamine assay; for CR / %: Fig. S7 panel B
Procedure, shortened: as §1

[6] = Log10 of derived count rate of scattered light (turbidity)
[7] = log10 of derived count rate of scattered light (turbidity)
[8] = logarithm of count rate in kcps
[9] = turbidity, Log10 of derived count rate of scattered light, Figure 3A source data
[10] = zeta potential of peptide assemblies
[11] = zeta-potential of peptide, source data of Figure 2C
[12] = zeta-potential of the peptide assemblies, mean, Figure 3A source data
[13] = Fig. S7 panel A (plotted against β-sheet content)
[14] = Fig. S7 panel B (plotted against CR), rounded to two decimals
[15] = Log10 of infection rate relative to EF-C, Figure 3A source data
[16] = infection rate relative to EF-C, log10, data of Figure 2D
[17] = infection rate relative to EF-C, log10, source data of Figure 2C
[18] = second listing, peptides with TEM 2cat 0

| Substance | b -sheet / % [1] [%] | Log10 Count Rate [2, 6] | Count Rate / kcps [2] [kcps] | Log10 Count Rate [2, 7] | Log10 Count Rate [2, 8] | Log10 Count Rate [2, 9] | Zeta-Pot. [3, 10] | Zeta-Potential / mV [3, 11] [mV] | Zeta-Potential / mV [3, 12] [mV] | Rel-EFC [4] | Log10 Infection Rel EFC [4] | Log Infectivity [4, 13] | Log Infectivity [4, 14] | Log10 Infection Rel EF-C [4, 15] | Log10 Infection Rel EF-C [4, 16] | Log10 Infection Rel EF-C [4, 17] | Log10 of Rel to EFC (Feb2021) ([4]; all peptides of FigS16) | CR / % [5] [%] | CR [5] | other results |
| --- | --- | --- | --- | --- | --- | --- | --- | --- | --- | --- | --- | --- | --- | --- | --- | --- | --- | --- | --- | --- |
| HHHHKIKIKIKIWWWW | 48.8 | 4.376 | 23757 | 4.376 | 4.376 | 4.376 | 14.5 | 14.42 | 14.5 | 0,38 | -0,42 | -0.4216 | -0.42 | -0.42 | -0.4216 | -0.4216 | -0.42 | 96 | 96 | beta sheet [1]: 49; Zeta Count Rate ([2]; peptides with TEM 2cat 0): 23757 kcp; Log10 of Rel to EFC (Feb2021) [4, 18]: -0.42 |
| HHHHKIKIQINMYYYY | 46.73 | 3.753 | 5659 | 3.753 | 3.753 | 3.753 | 7.807 | 7.147 | 7.81 | 1,11 | 0,04 | 0.04454 | 0.04 | 0.04 | 0.04454 | 0.04454 | 0.04 | 98.4 | 98.42 | – |
| KFKFKFQF | 39.76 | 3.015 | 1036 | 3.015 | – | 3.015 | 15.2 | 16.32 | 15.2 | 0,8 | -0,1 | -0.09726 | -0.1 | -0.1 | -0.09726 | -0.09726 | -0.1 | 94 | 94 | – |
| KFKFQFFF | 49.11 | 3.483 | 3039 | 3.483 | – | 3.483 | 13.27 | 15.57 | 13.27 | 0,4 | -0,39 | -0.3936 | -0.39 | -0.39 | -0.3936 | -0.3936 | -0.39 | 98.5 | 98.46 | – |
| KFKFQFNM | 40.31 | 2.12 | 132 | – | – | 2.12 | – | 18.4 | 13.9 | 0,47 | -0,33 | -0.3265 | -0.33 | -0.33 | -0.3265 | -0.3265 | -0.33 | 94.8 | 94.77 | Log10 Count Rate ([2]; turbidity, log10 of derived count rate of scattered light): 2.12; Zeta-Pot. [3]: 13.9; Abs. Inf. ([4]; absolute infection signal, HIV-1 on TZM-bl cells, β-galactosidase luminescence): 7067; Log10 Inf. rel. to EF-C ([4]; log10 of HIV-1 infection of TZM-bl cells relative to EF-C (EF-C = 0)): -0.3265 |
| KIKIKIKIWW | 48.82 | 3.975 | 9436 | 3.975 | – | 3.975 | 15.4 | 15.83 | 15.4 | 0,37 | -0,43 | -0.4266 | -0.43 | -0.43 | -0.4266 | -0.4266 | -0.43 | 92 | 92 | beta sheet [1]: 49; Zeta Count Rate ([2]; peptides with TEM 2cat 0): 9436 kcp; Log10 of Rel to EFC (Feb2021) [4, 18]: -0.43 |
| KIKIKIQI | 40.16 | 3 | 999 | 3 | – | 3 | 6.97 | 9.885 | 6.97 | 0,1 | -1,01 | -1.014 | -1.01 | -1.01 | -1.014 | -1.014 | – | 80 | 80 | – |
| KIKIQIC | 52.93 | 2.992 | 981 | 2.992 | 2.992 | 2.992 | 19.93 | 19.97 | 19.93 | 0,61 | -0,22 | -0.2164 | -0.22 | -0.22 | -0.2164 | -0.2164 | -0.22 | 51.5 | 51.55 | FTIR ß-sheet content [1]: 52.93%; Zeta Count Rate ([2]; mean of the 3 replicates): 980.7 kcps; Zeta Count Rate ([2]; replicate 1): 1115.50 kcps; Zeta Count Rate ([2]; replicate 2): 1268.60 kcps; Zeta Count Rate ([2]; replicate 3): 557.90 kcps; Infection RLU/s, 1.3 µm abs ([4]; peptide 1.3 µm (so in the source), mean of the 3 replicates): 9447 RLU/s |
